This is an account of results in US20190292155A1, “THERAPEUTIC INHIBITORY COMPOUNDS” (LifeSci Pharmaceuticals, Inc., priority 2016, published 2019).

Molecules are shown by their SMILES.

As usually defined, the IC50 is the concentration at which inhibition is half-maximal.

T1 sequence (P00746 26-253): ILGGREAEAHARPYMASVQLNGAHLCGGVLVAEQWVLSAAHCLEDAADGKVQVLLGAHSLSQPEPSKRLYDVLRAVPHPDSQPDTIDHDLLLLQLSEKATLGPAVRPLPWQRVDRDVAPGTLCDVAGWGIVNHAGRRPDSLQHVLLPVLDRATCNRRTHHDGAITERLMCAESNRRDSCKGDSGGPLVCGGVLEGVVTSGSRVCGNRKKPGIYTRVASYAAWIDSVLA

The first assay addresses T1, human complement factor D (Homo sapiens, UniProt P00746).
T1 construct: purchased R&D Systems 1824-SE
In words: In vitro enzyme inhibition of human complement factor D (Z-Lys-SBzl/DTNB, A405). In kind it is biochemical.
Settings: not given
The procedure: The ability of the compounds disclosed herein to inhibit human complement factor D inhibitory activity was quantified according to the 12-step protocol provided below. • 1. Prepare assay buffer: 50 mM Tris/HCl, pH 7.5, 1 M NaCl. • 2. […] Then dilute the serial concentrations of Nafamostat Mesilate 20-fold in assay buffer. • 3. […] 0.5% DMSO was in each well finally. • 4. […] Add 10 μl diluted test compounds duplicated into the 96-well plate. […] 0.5% DMSO was in each well finally. • 6. Dilute 20 mM substrate Z-Lys-SBzl (Bachem, Cat# M-1300) to 200 μM in assay buffer with 200 μM DTNB (Sigma, Catalog# D8130). • 7. […] Add 40 μl diluted Complement Factor D in the 96-well plate. • 8. Positive control well contains Complement Factor D without test compound. Negative control well contains neither Complement Factor D nor test compound. Using assay buffer, bring the total volume of all controls to 50 al. • 9. Pre-incubate the plate for 5 min at room temperature. • 10. Add 50 μl of diluted substrate/DTNB mixture into each well. […] For kinetic reading: Immediately start measuring absorbance (A405 nm) continuously and record data every 30 sec for 60 min. • 12. Data analysis • Inhibition activity of compound was evaluated by IC50. IC50 was calculated according the dose-response curve of compound fitted using GraphPadPrism with “log(inhibitor)-response (variable slope)” equation. • % inhibition was calculated by using following equation:
[formula] • Mean(NC): The average value of the negative control wells' A405 nm values. • Mean(PC): The average value of the positive control wells' A405 nm values.
Regarding `CC(C)C(C)N(CC(=O)NCc1cccc(Cl)c1F)C(=O)Cn1nc(C(N)=O)c2ccccc21` (stereo not shown) [Example 54, 1-(2-((2-((3-chloro-2-fluorobenzyl)amino)-2-oxoethyl)(3-methylbutan-2-yl)amino)-2-oxoethyl)-1H-indazole-3-carboxamide], the IC50 lay in the range of 100 to 1000 nM.
Same read-out and setting: the result for `NC(=O)c1nn(CC(=O)N(CC(=O)NCc2cccc(Cl)c2F)C2CC2)c2ccc(F)cc12` [Example 78, 1-(2-((2-((3-chloro-2-fluorobenzyl)amino)-2-oxoethyl)(cyclopropyl)amino)-2-oxoethyl)-5-fluoro-1H-indazole-3-carboxamide] reads 100 to 1000 nM.

The assay is the same for the next values; noted with them: biochemical assay, substrate Z-Lys-SBzl; read-out: CFD IC50.
For `NC(=O)n1nc(CC(=O)N(CC(=O)Nc2cccc(Cl)n2)C2CCOCC2)c2ccccc21` [Example 21, 3-(2-((2-((6-chloropyridin-2-yl)amino)-2-oxoethyl)(tetrahydro-2H-pyran-4-yl)amino)-2-oxoethyl)-1H-indazole-1-carboxamide], the IC50 was in the range of 1000 to 10000 nM.
On the same count and under the same terms, in the case of `Cc1ccc(CNC(=O)CN(C(=O)Cn2nc(C(N)=O)c3ccccc32)C2CC2)cc1Cl` [Example 113, 1-(2-((2-((3-chloro-4-methylbenzyl)amino)-2-oxoethyl)(cyclopropyl)amino)-2-oxoethyl)-1H-indazole-3-carboxamide] it was 1000 to 10000 nM; in that of `CC(=O)c1nc(NC(=O)N(CC(=O)NCc2cccc(Cl)c2F)C2CC2)c2ccccn12` [Example 141, 2-(3-(3-acetylimidazo[1,5-a]pyridin-1-yl)-1-cyclopropylureido)-N-(3-chloro-2-fluorobenzyl)acetamide], 100 to 1000 nM.
The same measure, in the same setting: in the case of `CC(=O)c1nc(CC(=O)N(CC(=O)NCc2cccc(Cl)c2F)C2CC2)c2ccccn12` [Example 137, 2-(3-acetylimidazo[1,5-a]pyridin-1-yl)-N-(2-((3-chloro-2-fluorobenzyl)amino)-2-oxoethyl)-N-cyclopropylacetamide] it was 1000 to 10000 nM; in that of `CC(CCF)N(CC(=O)NCc1cccc(Cl)c1F)C(=O)Cn1nc(C(N)=O)c2ccccc21` (stereo not shown) [Example 60, 1-(2-((2-((3-chloro-2-fluorobenzyl)amino)-2-oxoethyl)(4-fluorobutan-2-yl)amino)-2-oxoethyl)-1H-indazole-3-carboxamide], 100 to 1000 nM; in that of `NCc1ccc2c(C(N)=O)nn(CC(=O)N(CC(=O)NCc3cccc(Cl)c3F)C3CC3)c2c1` [Example 89, 6-(aminomethyl)-1-(2-((2-((3-chloro-2-fluorobenzyl)amino)-2-oxoethyl)(cyclopropyl)amino)-2-oxoethyl)-1H-indazole-3-carboxamide], 1000 to 10000 nM.
On to `NC(=O)c1nn(CC(=O)N(CC(=O)NCc2ccc(Cl)c(Cl)c2)C2CC2)c2ccccc12` [Example 104, 1-(2-(cyclopropyl(2-((3,4-dichlorobenzyl)amino)-2-oxoethyl)amino)-2-oxoethyl)-1H-indazole-3-carboxamide], for which the IC50 is 1000 to 10000 nM.
Still for that read-out and setting: in the case of `NCCN(CC(=O)Nc1cccc(Cl)n1)C(=O)Cc1nn(C(N)=O)c2ccccc12` [Example 18, 3-(2-((2-aminoethyl)(2-((6-chloropyridin-2-yl)amino)-2-oxoethyl)amino)-2-oxoethyl)-1H-indazole-1-carboxamide] it was 1000 to 10000 nM; in that of `NCCN(CC(=O)NCc1cccc(Cl)c1F)C(=O)Cn1nc(C(N)=O)c2ccccc21` [Example 31, 1-(2-((2-aminoethyl)(2-((3-chloro-2-fluorobenzyl)amino)-2-oxoethyl)amino)-2-oxoethyl)-1H-indazole-3-carboxamide], 100 to 1000 nM.
On the same count and under the same terms, the result for `CC(C(N)=O)N(CC(=O)NCc1cccc(Cl)c1F)C(=O)Cn1nc(C(N)=O)c2ccccc21` (stereo not shown) [Example 62, 1-(2-((1-amino-1-oxopropan-2-yl)(2-((3-chloro-2-fluorobenzyl)amino)-2-oxoethyl)amino)-2-oxoethyl)-1H-indazole-3-carboxamide] reads 1000 to 10000 nM.
The same measure, in the same setting: in the case of `NC(=O)n1cc(CC(=O)N(CC(=O)NCc2cccc(Cl)c2F)C2CC2)c2ccccc21` [Example 41, 3-(2-((2-((3-chloro-2-fluorobenzyl)amino)-2-oxoethyl)(cyclopropyl)amino)-2-oxoethyl)-1H-indole-1-carboxamide] it was 100 to 1000 nM; in that of `NC(=O)c1nn(CC(=O)N(CC(=O)NCc2cc(Cl)c3[nH]ncc3c2)C2CC2)c2ccccc12` [Example 114, 1-(2-((2-(((7-chloro-1H-indazol-5-yl)methyl)amino)-2-oxoethyl)(cyclopropyl)amino)-2-oxoethyl)-1H-indazole-3-carboxamide], 1000 to 10000 nM.
As to `N#Cc1ccc(Cl)c(F)c1CNC(=O)CN(C(=O)Cn1nc(C(N)=O)c2ccccc21)C1CC1` [Example 87, 1-(2-((2-((3-chloro-6-cyano-2-fluorobenzyl)amino)-2-oxoethyl)(cyclopropyl)amino)-2-oxoethyl)-1H-indazole-3-carboxamide], the IC50 lay within 100 to 1000 nM.
The same measure, in the same setting: the result for `NC(=O)c1nn(CC(=O)N(CC(=O)NCc2ccc(F)c(Cl)c2)C2CC2)c2ccccc12` [Example 108, 1-(2-((2-((3-chloro-4-fluorobenzyl)amino)-2-oxoethyl)(cyclopropyl)amino)-2-oxoethyl)-1H-indazole-3-carboxamide] reads 1000 to 10000 nM; that for `NC(=O)n1nc(CC(=O)N(CC(=O)Nc2cccc(Cl)n2)C2CCCC2)c2ccccc21` [Example 19, 3-(2-((2-((6-chloropyridin-2-yl)amino)-2-oxoethyl)(cyclopentyl)amino)-2-oxoethyl)-1H-indazole-1-carboxamide], 100 to 1000 nM; that for `C[C@H](C(=O)NCc1cccc(Cl)c1F)N(C(=O)Cn1nc(C(N)=O)c2ccccc21)C1CC1` [Example 38, (R)-1-(2-((1-((3-chloro-2-fluorobenzyl)amino)-1-oxopropan-2-yl)(cyclopropyl)amino)-2-oxoethyl)-1H-indazole-3-carboxamide], 1000 to 10000 nM.
As for `C[C@@H](C(=O)Nc1cccc(Cl)c1F)N(C)C(=O)Cn1nc(C(N)=O)c2ccccc21` [Example 2, (S)-1-(2-((1-((3-chloro-2-fluorophenyl)amino)-1-oxopropan-2-yl)(methyl)amino)-2-oxoethyl)-1H-indazole-3-carboxamide], the IC50 lay in the range of 1000 to 10000 nM.
Same read-out and setting: in the case of `NC(=O)c1nn(CC(=O)N(CC(=O)NCc2cccc(Cl)c2)C2CC2)c2ccccc12` [Example 112, 1-(2-((2-((3-chlorobenzyl)amino)-2-oxoethyl)(cyclopropyl)amino)-2-oxoethyl)-1H-indazole-3-carboxamide] it was 100 to 1000 nM; in that of `NC(=O)c1nn(CC(=O)N(CC(=O)NCc2cncc(Cl)c2)C2CC2)c2ccccc12` [Example 130, 1-(2-((2-(((5-chloropyridin-3-yl)methyl)amino)-2-oxoethyl)(cyclopropyl)amino)-2-oxoethyl)-1H-indazole-3-carboxamide], 1000 to 10000 nM.
The same measure, in the same setting: the result for `CC1(C)C[C@H](O)C[C@@H](NC(=O)CN(C(=O)Cn2nc(C(N)=O)c3ccccc32)C2CC2)C1` [Example 10, 1-(2-(cyclopropyl(2-(((1S,5S)-5-hydroxy-3,3-dimethylcyclohexyl)amino)-2-oxoethyl)amino)-2-oxoethyl)-1H-indazole-3-carboxamide] reads 1000 to 10000 nM; that for `CC1(C)CC(O)CC(NC(=O)CN(C(=O)Cn2nc(C(N)=O)c3ccccc32)C2CC2)C1` (stereo not shown) [Example 9, 1-(2-(cyclopropyl(2-((5-hydroxy-3,3-dimethylcyclohexyl)amino)-2-oxoethyl)amino)-2-oxoethyl)-1H-indazole-3-carboxamide], 1000 to 10000 nM.
On the same count and under the same terms, in the case of `NC(=O)n1cc(NC(=O)N(CC(=O)NCc2cccc(Cl)c2F)C2CC2)c2ccccc21` [Example 51, 3-(3-(2-((3-chloro-2-fluorobenzyl)amino)-2-oxoethyl)-3-cyclopropylureido)-1H-indole-1-carboxamide] it was 100 to 1000 nM.
In the case of `Cc1cccc(CNC(=O)CN(C(=O)Cn2nc(C(N)=O)c3ccccc32)C2CC2)c1F` [Example 128, 1-(2-(cyclopropyl(2-((2-fluoro-3-methylbenzyl)amino)-2-oxoethyl)amino)-2-oxoethyl)-1H-indazole-3-carboxamide], the IC50 was 100 to 1000 nM.
On to `CC(CC(=O)O)N(CC(=O)NCc1cccc(Cl)c1F)C(=O)Cn1nc(C(N)=O)c2ccccc21` (stereo not shown) [Example 74, 3-(2-(3-carbamoyl-1H-indazol-1-yl)-N-(2-((3-chloro-2-fluorobenzyl)amino)-2-oxoethyl)acetamido)butanoic acid], for which the IC50 lay within 1000 to 10000 nM.
For the compound `NC(=O)c1nn(CC(=O)N(CC(=O)NCc2cccc(Cl)c2F)C2CC2)c2cc(C(F)(F)F)ccc12` [Example 94, 1-(2-((2-((3-chloro-2-fluorobenzyl)amino)-2-oxoethyl)(cyclopropyl)amino)-2-oxoethyl)-6-(trifluoromethyl)-1H-indazole-3-carboxamide], the IC50 lay within 100 to 1000 nM.
The same measure, in the same setting: in the case of `NC(=O)c1nn(CC(=O)N(CC(=O)Nc2cccc(Cl)n2)C2CCNCC2)c2ccccc12` [Example 17, 1-(2-((2-((6-chloropyridin-2-yl)amino)-2-oxoethyl)(piperidin-4-yl)amino)-2-oxoethyl)-1H-indazole-3-carboxamide] it was 1000 to 10000 nM.
